In patent publication US20230203485A1, “METHODS FOR MODULATING MHC-I EXPRESSION AND IMMUNOTHERAPY USES THEREOF” (Dana-Farber Cancer Institute, Inc., priority 2020, published 2023):

Tests used:
surface HLA class I = assay: USP7 inhibitor treatment of MCC lines, surface HLA-I by flow cytometry; format: cell-based, human; conditions: 3 days
[1] = test system: HLA-I-bound peptidomes of MCC-301 cells; assay: HLA-I-bound immunopeptidome of USP7 inhibitor treated MCC-301 cells (TMT LC-MS/MS); format: cell-based, human
Method: Up to 40 million or 0.2 g of MCC cells were immunoprecipitated. Briefly, MCC cells were harvested and lysed in ice-cold lysis buffer containing […] (pH 8.0), 1 mM EDTA (pH 8.0), 0.1M sodium chloride, Triton X-100, 0.06M octyl β-d-glucopyranoside, 100 U/mL DNAse I, 1 mM phenylmethanesulfonyl fluoride (all from Sigma Aldrich), and protease inhibitor cocktail (Roche Diagnostics). Cell lysate was centrifuged at 12,700 rpm at 4° C. for 22 min. Lysate supernatant was coupled with Gammabind Plus sepharose beads (GE Healthcare) and incubated with 10 μg of HLA-I antibody (Clone W6/32, Santa Cruz Biotechnologies) at 4° C. under rotary agitation for 3 h. After incubation, the lysate-bead-antibody mixture was briefly centrifuged and the supernatant was discarded. Beads were washed with lysis buffer, consisting of wash buffer containing 40 mM Tris (pH 8.0), 1 mM EDTA (pH 8.0), 0.1M sodium chloride, 0.06M octyl β-d-glucopyranoside, and 20 mM Tris buffer, without protease inhibitors. Gel loading tips (Fisherbrand) were used to remove as much fluid from beads as possible. Peptides of up to three immunoprecipitations were combined, acid eluted, and analyzed using LC/MS-MS. Briefly, peptides were resuspended in 3% acetonitrile with 5% formic acid and loaded onto an analytical column (20-30 cm with 1.9 μm C18 Reprosil beads, Dr. Maisch HPLC GmbH); packed in-house). Peptides were eluted in a 6-30% gradient (EasyLC 1000 or 1200, Thermo Fisher Scientific) and analyzed on a QExactive Plus, Fusion Lumos, or Orbitrap Exploris 480 (Thermo Fisher Scientific). For Lumos measurements, peptides were also subjected to fragmentation if they were singly charged. For Orbitrap Exploris measurements (2 immunoprecipitations pooled, +/−IFN-γ, FIG. 3) and detection of the large T antigen peptide (3 immunoprecipitations of the MCC-367 cell line treated with IFN-γ) peptides were further fractionated using stage tip basic reverse phase separation with 2 punches of SDB-XC material (Empore 3M) and increasing concentrations of acetonitrile (5%, 10% and 30% in 0.1% NH4OH, pH 10). Fractions were analyzed on a Fusion Lumos or Orbitrap Exploris 480 equipped with a FAIMSpro interface. […]
Mass spectra were interpreted using Spectrum Mill software package v7.1 pre-Release (Broad Institute, Cambridge, Mass.). […] MS/MS spectra were searched against a protein sequence database that contained 90,904 entries, including all UCSC Genome Browser genes with hg19 annotation of the genome and its protein coding transcripts (52,788 entries), common human virus sequences (30,181 entries), recurrently mutated proteins observed in tumors from 26 tissues (4,595 entries), 264 common laboratory contaminants as well as protein sequences containing somatic mutations detected in MCC cell lines (3,076 entries). […]

[2] = test system: MKL-1 control or p53 KO cells; assay: Cell cycle analysis (EdU/DAPI flow cytometry); format: cell-based, human; conditions: MKL-1 TP53-WT and TP53-KO, 100 nM, three days
Method: 1 million MKL-1 control or p53 KO cells were plated and treated with DMSO, XL177A (100 nM) or XL177B (100 nM) for three days. During the last hour of the three-day treatment, the cells were pulsed with 10 μM EdU nucleotide. The cells were collected by centrifugation, treated with Accutase™ (Stem Cell Technologies) to break apart clumps, washed with PBS and fixed using 4% Formaldehyde solution in PBS at Room temperature for 15 mins. Cells were washed with 1% BSA in PBS and resuspended in 70% ice cold ethanol and incubated at −20° C. overnight for additional fixing and permeabilization. The cells were stored in 70% ethanol at −20° C. until the day the data was acquired. On the day of data acquisition, the cells were collected by centrifugation and washed twice with PBS. The incorporated EdU in the cells were labeled with a CLICK reaction cocktail (1 mM CuSO4, 100 μM THPTA, 100 mM sodium ascorbate, and 2.2 μM Alexa 647 azide in PBS) at room temperature with rocking for 30 minutes. The samples were then washed with 1% BSA in PBS once followed by two washes with PBS and incubated with a 1 μg/ml DAPI, 100 ng/ml RNase A solution for one hour at Room temperature to stain the DNA. The samples were then passed through strainer tubes and analyzed using a BD Fortessa analyzer. The flow cytometry data was analyzed using the FlowJo Software. […]

surface HLA-I = assay: USP7 inhibitor treatment of MKL-1 p53-WT control and p53-KO lines, surface HLA I by flow cytometry; format: cell-based, human
Method: For MCC-301 USP7 inhibitor experiments, two and a half million MCC cells were plated in a T25 flask and incubated with the USP7 inhibitor XL177A and control enantiomer XL177B at 10 μM, 1 μM, 100 nM, and 10 nM. Cells were incubated for 3 to 4 days. Post incubation, one million cells were treated with Versene (Gibco) to dissociate cell clusters. Surface Fc receptors were blocked with 5 μL Human TruStain FcX (Biolegend #422302). Surface HLA-I was stained with 5 μL of Pan HLA-Class I antibody (Clone W6/32, Santa Cruz Biotechnologies) for 30 minutes in dark at 4° C. Cells were washed with PBS and fixed with 4% paraformaldehyde fixation buffer (Biolegend). Cells were analyzed on a BD LSRFortessa. MCC-301 data are representative of 4 independent experiments. To perform statistical analysis, for each cell line, one-way ANOVA was first performed on the MFIs of the DMSO group and all experimental groups. Then, individual Welch t-tests were performed for each concentration, comparing the fold-changes of MFI (inhibitor)/mean MFI (DMSO control) between XL177A and XL177B.
For MKL-1 USP7 inhibitor experiments, p53-WT control lines (WT, scrambled, AAVS1) and three p53-KO lines were treated with USP7 inhibitors and assessed by flow cytometry for surface HLA I as described above for MCC-301.

USP7 = USP7 (Homo sapiens, UniProt Q93009); conditions: enantiomer control vs XL177A; cited from earlier work
autologous T cells = assay: IFN-γ ELISpot with patient MCC-367 PBMCs; format: cell-based, human; conditions: 10 μg/ml peptide
Method: Matching patient peripheral blood mononuclear cells (PBMCs) from patient MCC-367 were thawed, and 10^7 cells per well were seeded in 24 well plates overnight. Cells were stimulated with 10 μg/ml of the LT antigen peptide […] (identified in the MCC-367 HLA peptidome, FIG. 3F) in complete DMEM supplemented with 10% Human serum and 20 ng/ml IL-7 (PeproTech). After 3 days of stimulation, cells were supplemented with 20 units/mL IL-2 (PeproTech). After 10 days of stimulation, cells were cytokine deprived overnight. 50,000 cells per well were stimulated in an IFN-γ ELISpot assay with 10 μg/ml of the […] peptide. DMSO and an HIV-GAG peptide were used as negative controls. CEF (Mabtech) and PHA (Sigma Aldrich) were used as positive controls (not shown). ELISpot and T cell culture methods were described in detail previously.

[3] = 100 nM, three lines (MCC-277, -290, -301)
[4] = 100 nM, two MCPyV+ lines (MCC-301 and -277)

USP7, sequence (Q93009 whole entry): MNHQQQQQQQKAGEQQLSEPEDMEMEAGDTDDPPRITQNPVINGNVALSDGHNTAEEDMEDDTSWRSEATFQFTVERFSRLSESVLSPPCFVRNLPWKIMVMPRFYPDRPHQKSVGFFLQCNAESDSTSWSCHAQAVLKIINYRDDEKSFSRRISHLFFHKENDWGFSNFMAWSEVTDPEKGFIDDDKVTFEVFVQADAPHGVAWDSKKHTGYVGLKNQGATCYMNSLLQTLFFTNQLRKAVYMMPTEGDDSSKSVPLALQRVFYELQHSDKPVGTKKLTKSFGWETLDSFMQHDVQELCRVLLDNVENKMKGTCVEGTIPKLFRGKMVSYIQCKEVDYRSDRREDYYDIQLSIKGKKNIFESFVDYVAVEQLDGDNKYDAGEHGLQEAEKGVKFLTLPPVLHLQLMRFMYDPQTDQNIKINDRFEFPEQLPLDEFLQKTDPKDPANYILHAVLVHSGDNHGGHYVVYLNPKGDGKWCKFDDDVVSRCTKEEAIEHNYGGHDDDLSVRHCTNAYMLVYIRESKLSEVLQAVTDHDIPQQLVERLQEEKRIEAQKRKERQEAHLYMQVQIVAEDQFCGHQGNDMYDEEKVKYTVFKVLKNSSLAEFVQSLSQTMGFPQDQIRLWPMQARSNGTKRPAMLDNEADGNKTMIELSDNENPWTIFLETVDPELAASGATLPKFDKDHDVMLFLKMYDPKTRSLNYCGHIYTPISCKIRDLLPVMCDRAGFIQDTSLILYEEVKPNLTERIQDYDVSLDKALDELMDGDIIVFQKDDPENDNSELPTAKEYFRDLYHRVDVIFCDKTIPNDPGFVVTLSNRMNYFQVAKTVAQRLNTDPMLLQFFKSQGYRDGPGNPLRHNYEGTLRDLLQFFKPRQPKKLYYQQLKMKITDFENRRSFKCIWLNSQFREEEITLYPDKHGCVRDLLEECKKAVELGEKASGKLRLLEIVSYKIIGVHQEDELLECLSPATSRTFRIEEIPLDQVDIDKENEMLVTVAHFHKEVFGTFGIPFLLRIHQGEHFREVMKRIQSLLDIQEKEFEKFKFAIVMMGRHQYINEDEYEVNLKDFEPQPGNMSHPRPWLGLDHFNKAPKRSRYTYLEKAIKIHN

## CN1CCN(CCC(=O)Nc2ccc3c(=O)n(CC4(O)CCN(C(=O)[C@@H](CCCNC(=O)c5ccc6c(Cl)c7c(nc6c5)CCCC7)Cc5ccccc5)CC4)cnc3c2)CC1 [XL177A]
Surface HLA class I; [3]
  mean fold increase in expression of surface HLA class I relative to DMSO: 1.89 fold
  range of fold increase in expression of surface HLA class I relative to DMSO: 1.60-2.27 fold
Surface HLA class I; [4]
  mean fold increase in expression of surface HLA-I relative to DMSO: 2.0 fold
  range of fold increase in expression of surface HLA-I relative to DMSO: 1.78-2.27 fold
Surface HLA class I; MCC-290 (MCPyV−)
  increase in HLA-I levels in MCC-290: more modest increase
Surface HLA class I; MCC-320 (MCPyV−)
  increase in HLA I expression in MCC-320: did not exhibit a statistically significant increase and not
[1]
  abundance of displayed HLA-I peptides compared to XL177B and untreated cells: higher abundances of displayed peptides
  frequency of peptides displayed on each respective HLA-I gene (HLA-A, -B, -C): did not affect
[1]; out of 282 peptides
  percent of significantly differing peptides more abundant compared to untreated cells: 95.7%
[1]; out of 282 peptides whose abundance significantly differed (P<0.05)
  number of peptides more abundant compared to untreated cells: 270 peptides
[2]
  cell cycle shift: slight cell cycle shifts from S to G1 phase
Surface HLA-I; MKL-1 TP53-KO lines
  surface HLA-I relative to XL177B and DMSO: increased
Surface HLA-I; MKL-1 TP53-WT lines
  surface HLA-I relative to XL177B and DMSO: increased

## CN1CCN(CCC(=O)Nc2ccc3c(=O)n(CC4(O)CCN(C(=O)[C@H](CCCNC(=O)c5ccc6c(Cl)c7c(nc6c5)CCCC7)Cc5ccccc5)CC4)cnc3c2)CC1 [XL177B]
USP7
  potency relative to XL177A (fold less potent): 500 fold

## TSDKAIELY [peptide derived from the OBD domain of MCPyV LT, detected in the MCC-367 HLA peptidome]
Autologous T cells
  reactivity of autologous T cells by ELISpot: confirmed
